Results from patent US7612104B2, “Bicyclic aryl-sulfonic acid [1,3,4]-thiadiazol-2-yl-amides, processes for their preparation, pharmaceutical compositions and methods for their use” (Sanofi-Aventis, priority 2005, dated 2009).
pEC50: −log10 of the molar value.

Target: T1, human PPARdelta (Homo sapiens, UniProt Q03181)
T1 construct: amino acids S139-Y441; expressed in transfected cells; host or cells: HEK cells, stably transfected (pcDNA3, CMV promoter)
T1 sequence (Q03181 139-441): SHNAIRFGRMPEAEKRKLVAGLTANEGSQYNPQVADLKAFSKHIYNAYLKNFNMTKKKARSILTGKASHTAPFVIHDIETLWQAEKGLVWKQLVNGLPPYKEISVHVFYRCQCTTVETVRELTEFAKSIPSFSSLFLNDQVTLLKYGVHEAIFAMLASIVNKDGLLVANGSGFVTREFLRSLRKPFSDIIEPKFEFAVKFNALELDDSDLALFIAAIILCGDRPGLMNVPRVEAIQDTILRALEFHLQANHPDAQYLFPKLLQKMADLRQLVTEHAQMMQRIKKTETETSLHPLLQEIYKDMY
Assay: Cellular PPARdelta assay (stably transfected HEK reporter cell line, luciferase)
Type: cell-based
Settings: GR-GAL4-humanPPARdelta-LBD
Experimental: The activity of PPARalpha agonists is determined in a 3-day assay which is described below:
The PPARalpha reporter cell line is cultivated to 80% confluence in DMEM (#41965-039, Invitrogen) which is mixed with the following additions: 10% cs-FCS (fetal calf serum; #SH-30068.03, Hyclone), 0.5 mg/ml zeocin (#R250-01, Invitrogen), 0.5 mg/ml G418 (#10131-027, Invitrogen), 1% penicillin-streptomycin solution (#15140-122, Invitrogen) and 2 mM L-glutamine (#25030-024, Invitrogen). The cultivation takes place in standard cell culture bottles (#353112, Becton Dickinson) in a cell culture incubator at 37° C. in the presence of 5% CO2. The 80%-confluent cells are washed once with 15 ml of PBS (#14190-094, Invitrogen), treated with 3 ml of trypsin solution (#25300-054, Invitrogen) at 37° C. for 2 min, taken up in 5 ml of the DMEM described and counted in a cell counter. After dilution to 500.000 cells/ml, 35,000 cells are seeded in each well of a 96 well microtiter plate with a clear plastic base (#3610, Corning Costar). The plates are incubated in the cell culture incubator at 37° C. and 5% CO2 for 24 h.
PPARalpha agonists to be tested are dissolved in DMSO in a concentration of 10 mM. This stock solution is diluted in DMEM (#41965-039, Invitrogen) which is mixed with 5% cs-FCS (#SH-30068.03, Hyclone), 2 mM L-glutamine (#25030-024, Invitrogen) and the previously described antibiotics (zeocin, G418, penicillin and streptomycin). Test substances are tested in 11 different concentrations in the range from 10 μM to 100 pM.
The medium of the PPARalpha reporter cell line seeded on day 1 is completely removed by aspiration, and the test substances diluted in medium are immediately added to the cells. The dilution and addition of the substances is carried out by a robot (Beckman FX). The final volume of the test substances diluted in medium is 100 μl per well of a 96 well microtiter plate. The DMSO concentration in the assay is less than 0.1% v/v in order to avoid cytotoxic effects of the solvent.
The assay plates are incubated in an incubator at 37° C. and 5% CO2 for 24 h.
The PPARalpha reporter cells treated with the test substances are removed from the incubator, and the medium is aspirated off. The cells are lyzed by pipetting 50 μl of Bright Glo reagent (from Promega) into each well of a 96 well microtiter plate. After incubation at room temperature in the dark for 10 minutes, the microtiter plates are measured in the luminometer (Trilux from Wallac). The measuring time for each well of a microtiter plate is 1 sec.
The raw data from the luminometer are transferred into a Microsoft Excel file. Dose-effect plots and EC50 values of PPAR agonists are calculated using the XL.Fit program as specified by the manufacturer (IDBS).
The potency of substances which bind to human PPARdelta and activate it in an agonistic manner is analyzed using a stably transfected HEK cell line (HEK=human embryo kidney) which is referred to here as PPARdelta reporter cell line. In analogy to the assay described for PPARalpha, the PPARdelta reporter cell line also contains two genetic elements, a luciferase reporter element (pdeltaM-GAL4-Luc-Zeo) and a PPARdelta fusion protein (GR-GAL4-humanPPARdelta-LBD) which mediates expression of the luciferase reporter element depending on a PPARdelta ligand. The stably and constitutively expressed fusion protein GR-GAL4-humanPPARdelta-LBD binds in the cell nucleus of the PPARdelta reporter cell line via the GAL4 protein portion to the GAL4 DNA binding motifs 5′-upstream of the luciferase reporter element which is stably integrated in the genome of the cell line. There is only little expression of the luciferase reporter gene in the absence of a PPARdelta ligand if fatty acid-depleted fetal calf serum (cs-FCS) is used in the assay. PPARdelta ligands bind and activate the PPARdelta fusion protein and thereby stimulate expression of the luciferase reporter gene. […]

CCOc1cc(C(F)(F)F)ccc1C(=O)NC1Cc2ccc(S(=O)(=O)Nc3nnc(C(C)C)s3)cc2C1 (racemic) [Example 1, 2-Ethoxy-N-[5-(5-isopropyl-[1,3,4]thiadiazol-2-ylsulfamoyl)-indan-2-yl]-4-trifluoromethyl-benzamide]
pEC50: 9.00

CCOc1cc(C(F)(F)F)ccc1C(=O)NC1Cc2ccc(S(=O)(=O)Nc3nnc(C(C)C)s3)cc2C1 (single isomer, unassigned; enantiomer 1) [Example 1.1, 2-Ethoxy-N-[5-(5-isopropyl-[1,3,4]thiadiazol-2-ylsulfamoyl)-indan-2-yl]-4-trifluoromethyl-benzamide (Enantiomer 1)]
pEC50: 9.00

CCOc1cc(C(F)(F)F)ccc1C(=O)NC1Cc2ccc(S(=O)(=O)Nc3nnc(C(C)C)s3)cc2C1 (single isomer, unassigned; enantiomer 2) [Example 1.2, 2-Ethoxy-N-[5-(5-isopropyl-[1,3,4]thiadiazol-2-ylsulfamoyl)-indan-2-yl]-4-trifluoromethyl-benzamide (Enantiomer 2)]
pEC50: 7.30

CCOc1cc(C(F)(F)F)ccc1C(=O)N[C@H]1CCc2ccc(S(=O)(=O)Nc3nnc(C(C)C)s3)cc2C1 [Example 5, 2-Ethoxy-N-[(S)-7-(5-isopropyl-[1,3,4]thiadiazol-2-ylsulfamoyl)-1,2,3,4-tetrahydro-naphthalen-2-yl]-4-trifluoromethyl-benzamide]
pEC50: 6.22

CCOc1cc(C(F)(F)F)ccc1C(=O)N[C@@H]1CCc2ccc(S(=O)(=O)Nc3nnc(C(C)C)s3)cc2C1 [Example 6, 2-Ethoxi-N-[(R)-7-(5-isopropyl-[1,3,4]thiadiazol-2-ylsulfamoyl)-1,2,3,4-tetrahydro-naphthalene-2-yl]-4-trifluoromethyl-benzamide]
pEC50: 6.22

CCOc1cc(C(F)(F)F)sc1C(=O)NC1Cc2ccc(S(=O)(=O)Nc3nnc(C(C)C)s3)cc2C1 (stereo not drawn) [Example 11, 3-Ethoxy-5-trifluoromethyl-thiophene-2-carboxylic acid [5-(5-isopropyl-[1,3,4]thiadiazol-2-ylsulfamoyl)-indan-2-yl]-amide]
pEC50: 9.00
